Laboratory results: ChEMBL document CHEMBL1201862, “PubChem BioAssay data set” (2004)
Blank lines part the entries; values can stand above or below the molecule they belong to. Active and inactive are the calls of the source.

Assays:
[1] = target: T1, Aminopeptidase N (Plasmodium falciparum FcB1/Columbia, UniProt O96935); assay: malaria alanyl aminopeptidase activity blockers – biochemical, fluorogenic H-Leu-NHMec substrate, 1536-well (AID 1445); design: species or system Plasmodium falciparum 3D7, 3D7
T1 sequence (O96935 whole entry): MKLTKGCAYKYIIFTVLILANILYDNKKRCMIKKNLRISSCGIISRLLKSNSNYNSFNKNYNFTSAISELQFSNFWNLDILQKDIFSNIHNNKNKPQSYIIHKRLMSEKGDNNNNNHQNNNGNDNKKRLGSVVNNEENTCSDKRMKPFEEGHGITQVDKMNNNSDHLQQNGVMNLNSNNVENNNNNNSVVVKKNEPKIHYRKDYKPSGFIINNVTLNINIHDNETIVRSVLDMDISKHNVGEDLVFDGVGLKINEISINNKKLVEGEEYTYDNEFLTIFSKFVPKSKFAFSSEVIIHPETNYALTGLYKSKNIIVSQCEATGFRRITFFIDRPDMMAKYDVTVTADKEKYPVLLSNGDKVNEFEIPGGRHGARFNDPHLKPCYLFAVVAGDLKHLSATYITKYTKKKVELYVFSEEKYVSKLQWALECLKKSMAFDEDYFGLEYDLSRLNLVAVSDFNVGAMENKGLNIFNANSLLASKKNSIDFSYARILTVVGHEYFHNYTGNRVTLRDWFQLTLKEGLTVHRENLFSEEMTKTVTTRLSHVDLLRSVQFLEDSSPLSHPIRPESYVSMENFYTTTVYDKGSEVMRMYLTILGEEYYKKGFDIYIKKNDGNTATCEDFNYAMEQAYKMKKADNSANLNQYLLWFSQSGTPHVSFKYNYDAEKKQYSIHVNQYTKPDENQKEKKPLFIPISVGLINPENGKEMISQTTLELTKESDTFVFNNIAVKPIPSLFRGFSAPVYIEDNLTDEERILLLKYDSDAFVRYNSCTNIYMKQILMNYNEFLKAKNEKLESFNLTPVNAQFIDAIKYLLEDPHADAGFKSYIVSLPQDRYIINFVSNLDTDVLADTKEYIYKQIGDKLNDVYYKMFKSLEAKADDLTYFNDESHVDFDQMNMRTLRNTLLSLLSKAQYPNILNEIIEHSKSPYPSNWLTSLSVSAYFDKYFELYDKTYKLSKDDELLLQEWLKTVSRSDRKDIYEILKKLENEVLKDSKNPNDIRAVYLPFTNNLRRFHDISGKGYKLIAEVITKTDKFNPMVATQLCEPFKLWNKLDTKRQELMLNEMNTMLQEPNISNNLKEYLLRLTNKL

[2] = target: T2, Calpain-2 catalytic subunit (Sus scrofa, UniProt P43367); assay: m-calpain protease blockers, concentration series – biochemical, fluorogenic peptide substrate, dose response (AID 1420); format: functional
T2 sequence (P43367 whole entry): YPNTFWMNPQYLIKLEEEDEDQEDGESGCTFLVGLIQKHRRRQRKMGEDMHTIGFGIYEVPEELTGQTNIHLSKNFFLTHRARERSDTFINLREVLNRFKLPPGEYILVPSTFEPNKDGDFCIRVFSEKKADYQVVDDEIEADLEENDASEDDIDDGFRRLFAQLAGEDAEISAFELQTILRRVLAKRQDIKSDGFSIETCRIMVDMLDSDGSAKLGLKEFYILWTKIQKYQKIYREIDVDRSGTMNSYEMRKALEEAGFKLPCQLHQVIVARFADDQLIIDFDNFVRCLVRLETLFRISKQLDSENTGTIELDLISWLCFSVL

[3] = target: Voltage-dependent T-type calcium channel subunit alpha-1H (Homo sapiens, UniProt O95180); format: functional;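 note: channel activity triggered by adding a high calcium stimulation buffer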
[4] = target: Heat shock protein HSP 90-alpha (Homo sapiens, UniProt P07900); format: functional, organism-based
[5] = Trypanosoma cruzi growth suppression in host cells – NIH3T3 host cells, beta-gal luminescence, confirmation (AID 2044); format: functional, cell-based;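 note: intracellular parasites grown in NIH/3T3 mouse fibroblasts as host cells; luminescent beta-galactosidase reporter signal from transgenic T. cruzi replicating inside host cells; inhibitors lower the luminescence signal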
[6] = viability of PTEN-deleted HCT116 cells – cell-based, HCT116 PTEN knockout, dose response (AID 1047); format: functional;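 note: HCT116 colon tumor cells with PTEN knocked out; cells exposed to compound for 60 hours before readout; potency for loss of cell viability measured by luminescence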
[7] = NIH3T3 cell viability loss – ATP luminescence, mouse fibroblasts, counter-screen, dose response (AID 2010); format: functional, cell-based;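 note: cells exposed to compound for about 90 hours before reading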
[8] = viability of HCT116 lacking mutant beta-catenin – cell-based, human colon tumor, dose response (AID 1045); format: functional;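 note: HCT116 colon tumor cells with beta catenin knocked out; cells exposed to compound for 60 hours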
[9] = Luminescence Cell-Based Dose Retest to Confirm Inhibitors of Cancer Stem Cells. [Related pubchem assays (depositor defined):AID2717, AID2721]; format: functional, Homo sapiens; conditions: Homo sapiens
[10] = target: T3, Heat shock factor protein 1 (Mus musculus, UniProt P38532); assay: enhancement of HSF1-driven luciferase signal – cell-based, NIH3T3, luminescence, dose retest, confirmation (AID 435004); format: functional;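 note: stress induced by proteasome inhibitor MG132 added 30 min after compound; luciferase reporter driven by HSF1 response element in NIH3T3 cells; actives raise luminescence as potentiators of the MG132 stress response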
T3 sequence (P38532 whole entry): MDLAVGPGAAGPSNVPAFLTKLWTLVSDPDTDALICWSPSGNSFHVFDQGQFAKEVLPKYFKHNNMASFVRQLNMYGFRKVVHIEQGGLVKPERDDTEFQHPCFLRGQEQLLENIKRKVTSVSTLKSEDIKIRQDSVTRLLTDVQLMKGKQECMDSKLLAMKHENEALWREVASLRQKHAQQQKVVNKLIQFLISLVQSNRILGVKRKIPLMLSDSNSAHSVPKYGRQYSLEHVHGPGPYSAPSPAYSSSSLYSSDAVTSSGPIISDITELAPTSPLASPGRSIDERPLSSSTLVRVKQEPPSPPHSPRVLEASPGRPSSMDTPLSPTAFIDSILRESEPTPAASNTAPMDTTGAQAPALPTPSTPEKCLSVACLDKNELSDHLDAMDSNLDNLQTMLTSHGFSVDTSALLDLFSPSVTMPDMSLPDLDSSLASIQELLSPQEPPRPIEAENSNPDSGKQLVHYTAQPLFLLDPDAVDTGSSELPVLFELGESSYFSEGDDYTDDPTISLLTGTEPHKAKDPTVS

[11] = target: T4, Short transient receptor potential channel 4 (Mus musculus, UniProt Q9QUQ5); assay: block of DAMGO-driven TRPC4 calcium entry – cell-based, HEK293 TRPC4/mu-opioid, Fluo-4 calcium, dose response (AID 434942); format: functional;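 note: potency of inhibitors blocking the TRPC4 calcium response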
T4 sequence (Q9QUQ5 whole entry): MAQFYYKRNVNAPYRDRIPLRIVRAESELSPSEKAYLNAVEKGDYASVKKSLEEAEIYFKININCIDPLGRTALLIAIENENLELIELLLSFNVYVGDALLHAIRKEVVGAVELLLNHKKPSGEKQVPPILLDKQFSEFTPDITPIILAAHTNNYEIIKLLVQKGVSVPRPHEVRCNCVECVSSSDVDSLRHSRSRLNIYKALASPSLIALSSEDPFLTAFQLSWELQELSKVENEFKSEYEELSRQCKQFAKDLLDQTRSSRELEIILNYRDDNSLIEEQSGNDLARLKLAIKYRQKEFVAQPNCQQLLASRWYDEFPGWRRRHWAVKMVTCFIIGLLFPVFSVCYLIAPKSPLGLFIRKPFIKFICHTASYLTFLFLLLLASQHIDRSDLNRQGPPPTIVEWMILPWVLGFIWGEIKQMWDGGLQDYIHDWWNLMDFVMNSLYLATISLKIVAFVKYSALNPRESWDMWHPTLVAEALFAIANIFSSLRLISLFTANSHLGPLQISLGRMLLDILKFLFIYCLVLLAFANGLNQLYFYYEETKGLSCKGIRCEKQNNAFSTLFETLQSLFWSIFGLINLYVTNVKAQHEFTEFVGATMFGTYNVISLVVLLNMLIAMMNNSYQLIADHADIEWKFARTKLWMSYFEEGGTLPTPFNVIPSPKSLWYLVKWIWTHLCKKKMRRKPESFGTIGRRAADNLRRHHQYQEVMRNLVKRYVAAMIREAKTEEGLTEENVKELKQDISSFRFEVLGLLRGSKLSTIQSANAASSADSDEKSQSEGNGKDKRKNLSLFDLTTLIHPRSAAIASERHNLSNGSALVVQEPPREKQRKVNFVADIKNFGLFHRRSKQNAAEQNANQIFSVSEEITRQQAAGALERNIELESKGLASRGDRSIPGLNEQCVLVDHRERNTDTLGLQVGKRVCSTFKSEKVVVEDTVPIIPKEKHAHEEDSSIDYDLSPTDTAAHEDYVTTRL

[12] = tested on: Vero; assay: viability of Vero cells under compound – cytotoxicity control for flavivirus capping enzyme inhibitors (AID 588742); format: functional; conditions: Chlorocebus sabaeus
[13] = target: T4, Short transient receptor potential channel 4; assay: calcium entry via TRPC4 opening agents – cell-based, HEK293 TRPC4/mu-opioid, Fluo-4 calcium, dose response (AID 434937); format: functional
[14] = target: Cytochrome P450 2C19 (Homo sapiens, UniProt P33261); assay: Cytochrome panel assay with activity outcomes. Panel member name: p450-cyp2c19 Compounds with AC50 equal or less than 10 uM are considered active; format: functional; conditions: read-out: AC50
[15] = target: Cytochrome P450 2C9 (Homo sapiens, UniProt P11712)
Chain of Cytochrome P450 2C9 (P11712 whole entry): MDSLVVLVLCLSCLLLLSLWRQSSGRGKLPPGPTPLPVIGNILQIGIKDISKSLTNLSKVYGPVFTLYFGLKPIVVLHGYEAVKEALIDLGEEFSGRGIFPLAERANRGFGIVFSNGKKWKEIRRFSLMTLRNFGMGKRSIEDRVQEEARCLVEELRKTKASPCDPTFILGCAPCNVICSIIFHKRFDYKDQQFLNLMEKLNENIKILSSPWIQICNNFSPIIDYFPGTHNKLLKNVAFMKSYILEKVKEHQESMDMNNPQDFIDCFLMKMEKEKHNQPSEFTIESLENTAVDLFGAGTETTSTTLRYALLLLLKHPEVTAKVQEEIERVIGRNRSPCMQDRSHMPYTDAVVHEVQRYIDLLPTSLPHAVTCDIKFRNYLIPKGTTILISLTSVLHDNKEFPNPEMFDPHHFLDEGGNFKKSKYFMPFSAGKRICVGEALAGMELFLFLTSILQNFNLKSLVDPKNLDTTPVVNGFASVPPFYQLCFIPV

Chain of Voltage-dependent T-type calcium channel subunit alpha-1H (O95180 whole entry): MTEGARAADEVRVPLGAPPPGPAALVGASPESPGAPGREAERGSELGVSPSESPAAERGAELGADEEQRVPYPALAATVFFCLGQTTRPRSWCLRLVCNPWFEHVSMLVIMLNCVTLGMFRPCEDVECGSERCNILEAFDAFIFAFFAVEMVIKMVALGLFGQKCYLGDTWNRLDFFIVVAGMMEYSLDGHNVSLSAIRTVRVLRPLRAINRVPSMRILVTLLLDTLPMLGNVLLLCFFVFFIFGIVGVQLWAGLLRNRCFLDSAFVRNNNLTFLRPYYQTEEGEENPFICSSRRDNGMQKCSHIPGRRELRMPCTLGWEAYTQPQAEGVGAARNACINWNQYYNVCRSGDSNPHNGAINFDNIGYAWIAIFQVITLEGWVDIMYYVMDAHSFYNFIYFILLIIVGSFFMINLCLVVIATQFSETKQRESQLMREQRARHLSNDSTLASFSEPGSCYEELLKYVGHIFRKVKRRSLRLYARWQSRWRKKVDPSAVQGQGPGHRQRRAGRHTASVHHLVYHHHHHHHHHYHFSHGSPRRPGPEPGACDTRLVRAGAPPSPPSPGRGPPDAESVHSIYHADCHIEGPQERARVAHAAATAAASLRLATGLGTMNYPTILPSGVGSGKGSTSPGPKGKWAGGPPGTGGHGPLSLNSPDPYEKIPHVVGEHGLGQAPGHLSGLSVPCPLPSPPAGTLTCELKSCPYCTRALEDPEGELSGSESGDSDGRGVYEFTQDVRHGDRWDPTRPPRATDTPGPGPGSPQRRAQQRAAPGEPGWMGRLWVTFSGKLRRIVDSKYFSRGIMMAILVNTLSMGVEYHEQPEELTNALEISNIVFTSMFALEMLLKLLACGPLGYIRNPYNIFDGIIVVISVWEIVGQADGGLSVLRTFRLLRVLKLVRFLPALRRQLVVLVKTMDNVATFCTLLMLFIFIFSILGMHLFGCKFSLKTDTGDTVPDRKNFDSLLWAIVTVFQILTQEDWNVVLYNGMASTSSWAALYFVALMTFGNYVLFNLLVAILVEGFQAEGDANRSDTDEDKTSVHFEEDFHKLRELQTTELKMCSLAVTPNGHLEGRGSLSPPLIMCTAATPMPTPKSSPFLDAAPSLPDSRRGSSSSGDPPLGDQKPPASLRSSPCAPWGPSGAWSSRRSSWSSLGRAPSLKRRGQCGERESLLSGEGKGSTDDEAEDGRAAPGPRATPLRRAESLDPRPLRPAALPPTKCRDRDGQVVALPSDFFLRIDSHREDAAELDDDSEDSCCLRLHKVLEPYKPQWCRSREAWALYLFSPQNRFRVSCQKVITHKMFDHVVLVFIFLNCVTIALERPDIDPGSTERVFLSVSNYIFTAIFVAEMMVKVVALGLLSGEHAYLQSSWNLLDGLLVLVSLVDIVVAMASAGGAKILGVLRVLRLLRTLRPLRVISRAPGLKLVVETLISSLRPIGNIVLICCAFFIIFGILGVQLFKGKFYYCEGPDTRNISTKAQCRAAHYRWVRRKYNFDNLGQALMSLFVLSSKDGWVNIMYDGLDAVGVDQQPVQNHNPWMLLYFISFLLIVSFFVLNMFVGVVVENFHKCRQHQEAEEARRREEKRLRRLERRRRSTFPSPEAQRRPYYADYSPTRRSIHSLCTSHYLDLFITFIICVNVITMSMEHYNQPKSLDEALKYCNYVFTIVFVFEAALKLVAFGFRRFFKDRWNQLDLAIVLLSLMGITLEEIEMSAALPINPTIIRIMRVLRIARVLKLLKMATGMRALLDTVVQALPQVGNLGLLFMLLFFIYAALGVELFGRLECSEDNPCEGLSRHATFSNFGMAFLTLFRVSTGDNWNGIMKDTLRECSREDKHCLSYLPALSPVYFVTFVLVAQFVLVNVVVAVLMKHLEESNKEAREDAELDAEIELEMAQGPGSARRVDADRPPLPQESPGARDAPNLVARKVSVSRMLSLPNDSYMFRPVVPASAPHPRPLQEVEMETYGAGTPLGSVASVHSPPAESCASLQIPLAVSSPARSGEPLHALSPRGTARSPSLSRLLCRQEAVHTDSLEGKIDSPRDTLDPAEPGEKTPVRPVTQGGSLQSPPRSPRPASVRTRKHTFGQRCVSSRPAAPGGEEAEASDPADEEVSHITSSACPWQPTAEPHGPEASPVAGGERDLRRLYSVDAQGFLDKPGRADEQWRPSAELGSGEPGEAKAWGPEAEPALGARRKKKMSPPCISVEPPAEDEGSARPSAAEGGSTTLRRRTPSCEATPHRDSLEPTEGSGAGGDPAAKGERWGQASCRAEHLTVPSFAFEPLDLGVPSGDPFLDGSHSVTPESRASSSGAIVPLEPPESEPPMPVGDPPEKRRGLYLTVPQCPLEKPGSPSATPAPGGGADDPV
Chain of Cytochrome P450 2C19 (P33261 whole entry): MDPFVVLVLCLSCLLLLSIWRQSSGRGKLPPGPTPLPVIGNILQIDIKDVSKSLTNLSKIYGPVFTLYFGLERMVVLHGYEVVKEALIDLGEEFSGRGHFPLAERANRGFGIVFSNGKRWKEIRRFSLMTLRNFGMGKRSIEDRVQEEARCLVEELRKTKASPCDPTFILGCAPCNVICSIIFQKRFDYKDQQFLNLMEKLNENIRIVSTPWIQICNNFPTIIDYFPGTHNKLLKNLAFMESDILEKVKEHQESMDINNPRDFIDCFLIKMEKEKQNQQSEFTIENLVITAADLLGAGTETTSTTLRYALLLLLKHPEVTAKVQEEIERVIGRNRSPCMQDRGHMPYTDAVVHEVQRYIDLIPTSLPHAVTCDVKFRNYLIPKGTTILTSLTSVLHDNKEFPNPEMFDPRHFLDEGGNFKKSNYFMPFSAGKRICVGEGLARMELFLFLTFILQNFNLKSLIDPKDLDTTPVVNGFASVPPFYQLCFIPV

IC50 [2]: > 50 µM (not active) | EC50 [3]: 3.06 µM (active)
Compound: Cc1ccc(C)c(OCCCC(=O)Nc2nccs2)c1

AC50 [4]: 4.4 µM (active)
Compound: Cc1ccc(NS(=O)(=O)c2ccc(N3CCN(c4ccc(O)cc4)CC3)c([N+](=O)[O-])c2)c(C)c1

EC50 [3]: 13 µM (active)
Compound: CCn1c(COc2cccc(C)c2)nc2ccccc21

EC50 [11]: 9.44 µM (active)
Compound: CCN(C(=O)c1c(-c2ccccc2Cl)noc1C)C1CCCCC1

AC50 [4]: 4.6 µM (active)
Compound: Cc1cccc(Nc2nc(N)c([N+](=O)[O-])c(N3CCCC(C)C3)n2)c1 (stereo not given)

IC50 [1]: 52.8 µM (active)
Compound: CC(=O)Nc1ccc(S(=O)(=O)Oc2cccc(/C=N/NC3=NC(=O)C(CC(=O)O)S3)c2)cc1 (stereo not given)

EC50 [11]: 10.6 µM (active) | EC50 [13]: 9.44 µM (active)
Compound: O=c1c2c(-c3ccccc3)csc2ncn1/N=C/c1cccc([N+](=O)[O-])c1O

EC50 [11]: 1.88 µM (active) | AC50 [14]: 31.6 µM (inconclusive) | AC50 [15]: inconclusive
Compound: Cc1cccn2c(=O)c(/C=N/O)c(N3CCCC3)nc12

The remaining lines, values behind:

Compound: O=C(CSc1nc(O)c2c(C(F)(F)F)cc(-c3cccs3)nc2n1)NCc1ccco1
IC50 [1]: 103 µM (active)

Compound: Cc1ccc(-c2cc(C(=O)N3N=C(C(F)F)CC3(O)C(F)F)c3ccccc3n2)cc1C (stereo not given)
EC50 [5]: 2.45 µM (active) | EC50 [6]: 38.6 µM (active) | EC50 [7]: > 30 µM (not active) | EC50 [8]: 39.4 µM (active) | AC50 [9]: 4.73 µM (active) | EC50 [10]: 188 µM (active) | AC50 [4]: 6.22 µM (active)

Compound: O=C(O)c1ccccc1-c1nc(-c2ccccc2)c(-c2ccccc2)[nH]1
IC50 [1]: 46.6 µM (active)

Compound: CC(C(=O)N(C)C1CCS(=O)(=O)C1)N1C(=O)/C(=C/c2ccco2)SC1=S (stereo not given)
CC50 [12]: 35.4 µM (active)

Compound: COc1ccc(SN=C2C(C)=CC(=O)C=C2C)cc1
AC50 [4]: 6.51 µM (active)

Compound: C[C@@]12C(=O)Nc3ccc(F)cc3C(=O)N1[C@H]1c3ccccc3OC[C@@H]1[C@@H]2c1ccccc1
AC50 [4]: 5.82 µM (active)

Compound: COc1ccc2c(c1)[C@H]1[C@H](CO2)[C@H](c2ccccc2)[C@]2(C)C(=O)Nc3ccc(Cl)cc3C(=O)N12
AC50 [4]: 3.14 µM (active)
